Where two headings read alike, the source gives them in different places.
Legend:
[1] = Isothermal titration calorimetry of Cu(II) binding to PAI-1; settings: 10 °C; for Kd / K obs: one-site model; for Kd: K d = 1/K obs
Procedure: Isothermal titration calorimetry (ITC) was used to determine the thermodynamic parameters associated with Cu(II) interactions with PAI-1. Active and latent forms of wild-type and variants of PAI-1 were dialyzed into 100 mM MOPS, 250 mM (NH4)2SO4 at 10 °C for 2 h. Because of the relative instability of the H2AH3A variant of PAI-1, our studies on H2AH3A PAI-1 utilized a variant that contained an additional mutation, W175F. […] Residue 175 is not proximal to the N terminus and is not involved in metal ion coordination or its subsequent effects on PAI-1 stability. Copper solutions were prepared by diluting CuSO4 into the matched dialysate buffer. The copper stock concentration was verified using atomic absorbance spectroscopy, and the pH corrected to 7.4 at 10 °C using NaOH. Twenty micromolar PAI-1 (2.2 mL total volume) and copper solution (4 mL) were degassed under vacuum for 10 min at 5 °C prior to loading into the (Malvern) MicroCal VP-ITC. The PAI-1 solution was loaded into the ITC cell (1.394 mL), and the copper solution was loaded into the ITC syringe. The reference and experimental ITC cells were equilibrated to 10 °C prior to the start of the experiment. After a preliminary injection of 2 µL, each additional injection consisted of a 4 µL injection at 120 or 240 s intervals. Experiments were performed at least in duplicate. Control experiments measuring dilution heats were performed in which the copper solution was injected into buffer. The data were baseline corrected using NITPIC software (University of Texas, Southwestern), and fit to either a single-site or two-site non-symmetric binding model in SEDPHAT (National Institutes of Health). The data and fits were represented using GUSSI software (University of Texas, Southwestern).

tPA = tPA (Homo sapiens, UniProt P00750); test: PAI-1 activity measurement (inhibition of tPA at varying molar ratios); type: biochemical; settings: purified active protein
tPA, sequence (P00750 311-562 limits assumed): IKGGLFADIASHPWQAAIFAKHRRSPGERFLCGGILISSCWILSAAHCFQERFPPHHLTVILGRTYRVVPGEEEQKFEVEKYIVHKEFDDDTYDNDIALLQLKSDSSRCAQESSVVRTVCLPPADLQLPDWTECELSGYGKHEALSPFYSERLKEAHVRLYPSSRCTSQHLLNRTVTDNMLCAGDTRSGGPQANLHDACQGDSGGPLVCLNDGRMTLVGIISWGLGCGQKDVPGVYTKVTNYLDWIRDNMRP
Procedure: The activity of wild-type and variant forms of PAI-1 was measured using standard assays. PAI-1 was mixed with tPA at varying molar ratios ranging from 0.25 to 4 (PAI-1:tPA). The inhibitory capacity of PAI-1 was measured in a gel-based assay, wherein the PAI-1/tPA complex at each molar ratio was monitored and quantified by densitometry. PAI-1 inhibition of proteases was also measured in a kinetic assay in which the tPA-substrate (Spectrozyme tPA, Sekisui Diagnostics) was added to the mixture containing PAI-1 and tPA. Cleavage of the p-nitroanaline group of Spectrozyme tPA was detected by absorbance at 405 nm, allowing for the measurement of tPA activity over time at each molar ratio of PAI-1:tPA. […] Latent PAI-1 was generated by dilution in buffer (50 mM sodium phosphate, 300 mM NaCl, 1 mM EDTA, pH 6.25) to a 5 μM concentration, and incubation at 37 °C with light stirring for 6 days. The aforementioned activity measurements were performed to confirm that no active PAI-1 remained in the mixture.

[2] = Metal ion titration gel assay (copper sensitivity of PAI-1 latency, PAI-1/tPA complex densitometry); type: biochemical; settings: 4 µM PAI-1, 30 min, 37 °C, 50 mM MOPS, 100 mM (NH4)2SO4 pH 7.4, total Cu(II) 5-1000 µM, non-equilibrium
Procedure: To determine the Cu(II) concentrations required to induce accelerated PAI-1 latency, we used a gel-based metal ion titration assay. Serial dilutions of CuSO4 were prepared, resulting in final Cu(II) concentrations ranging from 5 to 1000 μM. […] Incubation with metal was initiated by adding PAI-1 at a final concentration of 4 μM and maintaining the mixture at 37 °C in 50 mM MOPS, 100 mM (NH4)2SO4 pH 7.4 for 30 min. After the 30-min incubation, PAI-1 was mixed in a 1:1 ratio with single-chain tPA (Molecular Innovations). Three control samples (PAI-1, tPA, and PAI-1/tPA) were also tested in which copper is not included. Non-reducing SDS-PAGE dye was added to each sample, followed by boiling for 10 min prior to loading on the gel. The free/latent PAI-1, free tPA, and PAI-1/tPA complex in each sample were separated and visualized by SDS-PAGE electrophoresis in a 4–12% gradient gel (Invitrogen). Samples were subjected to electrophoresis at 150 V for 75 min. SDS-PAGE gels were stained with Coomassie blue dye overnight, followed by three destaining steps of 90 min in deionized water containing 30% methanol and 7.5% glacial acetic acid. Gel pictures were captured using a ChemiDoc XRS molecular imager (Biorad), and gel band densitometry of the PAI-1/tPA complex bands was performed using Imagelab (Biorad). […]

PAI-1 [3] = target: PAI-1; set-up: method as in PMID 12067733, PMID 10764685; settings: read-out: K d of VN binding to PAI-1; cited from earlier work
PAI-1 [4] = target: PAI-1; set-up: method as in PMID 21280128; settings: read-out: K d of copper binding to PAI-1; cited from earlier work
[5] = target: vitronectin (Homo sapiens) (UniProt P04004); settings: cited from earlier work
vitronectin (Homo sapiens), sequence (P04004 399-478): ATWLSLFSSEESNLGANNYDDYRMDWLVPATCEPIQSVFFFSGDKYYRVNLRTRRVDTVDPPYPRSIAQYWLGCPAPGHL

[6] = target: vitronectin SMB domain (Homo sapiens) (UniProt P04004); settings: cited from earlier work
vitronectin SMB domain (Homo sapiens), sequence (P04004 17-66): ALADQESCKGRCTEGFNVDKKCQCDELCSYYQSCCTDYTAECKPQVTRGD

PAI-1 (from UniProt P05121), sequence (P05121 24-402): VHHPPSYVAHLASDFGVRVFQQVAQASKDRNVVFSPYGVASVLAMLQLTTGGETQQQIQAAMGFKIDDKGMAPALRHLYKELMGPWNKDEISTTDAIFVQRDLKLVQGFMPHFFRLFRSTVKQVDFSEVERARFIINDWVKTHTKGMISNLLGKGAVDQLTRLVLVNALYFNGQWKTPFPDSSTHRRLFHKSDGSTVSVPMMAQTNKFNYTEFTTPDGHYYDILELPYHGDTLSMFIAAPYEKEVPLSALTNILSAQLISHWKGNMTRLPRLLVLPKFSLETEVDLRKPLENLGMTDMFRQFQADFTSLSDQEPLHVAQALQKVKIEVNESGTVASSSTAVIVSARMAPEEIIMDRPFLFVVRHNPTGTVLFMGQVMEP

plasminogen activator inhibitor-1 [Wild-type]
Kd ([1]; [Cu(II)] 650 µM): 13 nM
Kd ([1]; [Cu(II)] 700 µM): 19 nM
K obs ([1]; [Cu(II)] 750 µM): 4.8 (±5.5) × 10^7 M^−1
Kd ([1]; [Cu(II)] 750 µM): 20 nM
K obs ([1]; [Cu(II)] 800 µM): 4.1 (±2.8) × 10^7 M^−1
Kd ([1]; [Cu(II)] 800 µM): 24 nM
average K obs ([1]; single-site model, average of replicate data): 5.4e+07 M⁻¹
molar equivalents of PAI-1 that fully inhibit tPA (tPA): 1.25 molar equivalents
Copper sensitivity (midpoint Cu(II) concentration at which 50% PAI-1/tPA complex is observed) [2]: 150 µM
Copper sensitivity (midpoint Cu(II) concentration at which 50% PAI-1/tPA complex is observed) ([2]; listed as wild-type PAI-1): approximately 150 µM

VN: Vitronectin, glycoprotein that binds and stabilizes active PAI-1
Kd (PAI-1 [3]): ~0.1 nM

O=S(=O)([O-])[O-].[Cu+2] [Copper, CuSO4]
Kd (PAI-1 [4]): ~90 nM

PAI-1 (from UniProt P05121)
Kd [5]: 0.1 nM
Kd [6]: 1 nM

Reference: paper PMC5613068, “Resolving distinct molecular origins for copper effects on PAI-1” (Journal of Biological Inorganic Chemistry, 2017)
